Assay results from ChEMBL document CHEMBL1201862, “PubChem BioAssay data set” (2004).
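The compound was tested at five concentrations on cells cultured in 96-well plates, with a 48-hour exposure period. GI50 marks 50% less growth.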 Active and inactive are the calls of the source. Rule as the data show it: active = GI50 up to about 1.1 µM and inactive = higher.

How the values were obtained:
Experiment in all cases: DTP human tumour cell line panel, 48 h
LXFL 529 = test system: LXFL 529
SNB-78 = test system: SNB-78
DMS-114 = test system: DMS-114
DMS-273 = test system: DMS-273
XF498 = test system: XF498
KM-20L2 = test system: KM-20L2
DLD-1 = test system: DLD-1
HOP-18 = test system: HOP-18
RXF 631 = test system: RXF 631

| Structure (SMILES) | GI50 (LXFL 529) | GI50 (SNB-78) | GI50 (DMS-114) | GI50 (DMS-273) | GI50 (XF498) | GI50 (KM-20L2) | GI50 (DLD-1) | GI50 (HOP-18) | GI50 (RXF 631) |
| --- | --- | --- | --- | --- | --- | --- | --- | --- | --- |
| COC(=O)c1c(C(=O)OC)c2cc(C(=O)c3ccccc3)ccn2c1Cl | 30 µM (inactive) | 50.9 µM (inactive) | 23.5 µM (inactive) | 27.6 µM (inactive) | 24.3 µM (inactive) | 55 µM (inactive) |  |  |  |
| Cc1nc2c(o1)/C(=N\c1ccccc1)c1ccccc1C2=O | 11.9 µM (inactive) | 6.81 µM (inactive) | 3.3 µM (inactive) | 10.2 µM (inactive) | 4.02 µM (inactive) | 17.4 µM (inactive) | 12.9 µM (inactive) | 5.42 µM (inactive) |  |
| O=C1C=C[C@@]23CC1C(O)C[C@H]2C=Cc1ccccc13 (some centres undefined) | > 100 µM (inactive) |  | > 100 µM (inactive) |  | > 100 µM (inactive) | > 100 µM (inactive) | 45.6 µM (inactive) |  |  |
| O=[N+]([O-])c1cccc(C2=NOC(C3CCCCC3)C2)c1 (centres undefined) | > 100 µM (inactive) | > 100 µM (inactive) | > 100 µM (inactive) | > 100 µM (inactive) |  |  | > 100 µM (inactive) | > 100 µM (inactive) | > 100 µM (inactive) |
| CC1=CCC(O)C=CC(C)C(O)C(C)C=C(C)C(=O)c2c(O)c(C)cc3c2C(=O)C(N)=C(NC(=O)/C=C\C=C/C=CC(C)C(O)CC1=O)C3=O (centres undefined) | 27.8 µM (inactive) | 17.3 µM (inactive) | > 100 µM (inactive) | > 100 µM (inactive) | > 100 µM (inactive) | > 100 µM (inactive) | > 100 µM (inactive) |  |  |
| COc1cc([C@H]2c3cc4c(cc3[C@H](NCc3ccc(F)cc3)C3COC(=O)[C@H]32)OCO4)cc(OC)c1O (some centres undefined) | 16.3 µM (inactive) | 24.7 µM (inactive) | 3.37 µM (inactive) | 1.3 µM (inactive) | 2.37 µM (inactive) | 3.56 µM (inactive) | 7.03 µM (inactive) | 26.3 µM (inactive) | 2.32 µM (inactive) |
| O=C1c2ccccc2C(=O)C1(Cl)C1(S(=O)(=O)O)c2ccccc2-c2ccccc21 | > 100 µM (inactive) | > 100 µM (inactive) | > 100 µM (inactive) | > 100 µM (inactive) | > 100 µM (inactive) | > 100 µM (inactive) | > 100 µM (inactive) | > 100 µM (inactive) |  |
| COc1ccc2nc3cc(Cl)ccc3c(NCCCN(CCCl)CCCl)c2c1 | 0.0166 µM (active) | 0.0845 µM (active) | < 0.01 µM (active) | 0.0161 µM (active) | < 0.01 µM (active) | 0.0339 µM (active) | 0.233 µM (active) | 2.64 µM (inactive) | 0.0118 µM (active) |
| CC(=O)c1ccc(NC(=O)C(=O)C(C(=O)c2ccc(Cl)c(Cl)c2)C2OC(=O)c3ccccc32)cc1 (centres undefined) | 11 µM (inactive) | 12.9 µM (inactive) | 13.4 µM (inactive) | 22.1 µM (inactive) | 22.5 µM (inactive) | 34.4 µM (inactive) | 23.8 µM (inactive) | 12.3 µM (inactive) |  |
| O=C(c1ccccc1)N1CCN2CCN=C(c3ccccc3)C21c1ccccc1 (centres undefined) | 97.9 µM (inactive) | > 100 µM (inactive) | 30.5 µM (inactive) | > 100 µM (inactive) |  | 70.6 µM (inactive) | 91 µM (inactive) | > 100 µM (inactive) |  |
| COc1c(C)cc(O)cc1C=O | > 100 µM (inactive) | > 100 µM (inactive) | > 100 µM (inactive) | > 100 µM (inactive) |  |  | > 100 µM (inactive) |  | > 100 µM (inactive) |
| O=C(/C=C(\O)C(=O)O)/C=C(\O)c1ccc(Cl)cc1 | > 100 µM (inactive) | > 100 µM (inactive) | > 100 µM (inactive) | > 100 µM (inactive) | > 100 µM (inactive) | > 100 µM (inactive) | > 100 µM (inactive) | > 100 µM (inactive) |  |
| O=P(CN1CCOCC1)(c1ccccc1)c1ccccc1 | > 100 µM (inactive) | > 100 µM (inactive) | > 100 µM (inactive) | > 100 µM (inactive) | > 100 µM (inactive) |  |  |  | > 100 µM (inactive) |
| CN(C)c1ccc(/C=C2\CCc3ccccc3C2=O)cc1Br | 48.3 µM (inactive) | 39.4 µM (inactive) |  | 34.7 µM (inactive) | 94.6 µM (inactive) | 21.6 µM (inactive) | 55.5 µM (inactive) | > 100 µM (inactive) |  |
| CCN(CC)C(=O)CNC(=O)OC(C)(C)C |  | > 100 µM (inactive) | > 100 µM (inactive) | > 100 µM (inactive) |  | > 100 µM (inactive) | > 100 µM (inactive) |  |  |
| Cc1c2n(c(=O)[nH]c1=O)C1OC(CO)C(O2)C1N=[N+]=[N-] (centres undefined) | > 100 µM (inactive) | > 100 µM (inactive) | > 100 µM (inactive) | > 100 µM (inactive) |  | > 100 µM (inactive) | > 100 µM (inactive) |  |  |
| COc1ccc(C(=O)O)c2c(=O)c3ccccc3[nH]c12 | > 100 µM (inactive) | > 100 µM (inactive) |  | > 100 µM (inactive) | > 100 µM (inactive) | > 100 µM (inactive) |  |  |  |
| Cc1cnc2c(C)ccc([N+](=O)[O-])c2c1NCCCN(C)C |  | 43.7 µM (inactive) | > 100 µM (inactive) | > 100 µM (inactive) |  | > 100 µM (inactive) |  |  |  |
| O=C1c2c(O)cccc2C(C(=O)CCCCCC(=O)C2c3cccc(O)c3C(=O)c3c(O)cccc32)c2cccc(O)c21 | 0.697 µM (active) | 0.681 µM (active) | 0.512 µM (active) | 4.98 µM (inactive) | 0.46 µM (active) | 5.51 µM (inactive) | 1.12 µM (inactive) | 1.16 µM (inactive) | 1.26 µM (inactive) |
| COC(=O)C(=O)C(C(=O)C=C(C)C)C(=O)C(=O)Nc1cc(C(F)(F)F)ccc1Cl (centres undefined) | > 100 µM (inactive) | > 100 µM (inactive) | > 100 µM (inactive) | 28.7 µM (inactive) | > 100 µM (inactive) | > 100 µM (inactive) | > 100 µM (inactive) | > 100 µM (inactive) | > 100 µM (inactive) |
| CC1=Nc2ccccc2NC(c2ccoc2)C1 (centres undefined) | > 100 µM (inactive) | > 100 µM (inactive) | > 100 µM (inactive) | > 100 µM (inactive) |  | > 100 µM (inactive) | > 100 µM (inactive) | > 100 µM (inactive) | > 100 µM (inactive) |
| CCCCCCCCOCC(COC(=O)CCCCCCC)OC(=O)CCCCCCC (centres undefined) | > 100 µM (inactive) |  | > 100 µM (inactive) | > 100 µM (inactive) |  | > 100 µM (inactive) | > 100 µM (inactive) | > 100 µM (inactive) | > 100 µM (inactive) |
| O=[N+]([O-])c1ccc(Sc2c3ccccc3nc3ccccc23)cc1 | > 100 µM (inactive) | > 100 µM (inactive) |  |  | > 100 µM (inactive) | > 100 µM (inactive) | > 100 µM (inactive) | > 100 µM (inactive) | > 100 µM (inactive) |
| CC(=O)c1cccc(NC(=O)C(=O)Nn2c(N)nnc2N)c1 | > 100 µM (inactive) | > 100 µM (inactive) | > 100 µM (inactive) | > 100 µM (inactive) | > 100 µM (inactive) | > 100 µM (inactive) | > 100 µM (inactive) | > 100 µM (inactive) |  |
| Cc1cc(N(CCC#N)CCC#N)ccc1/N=N/c1ccc(Br)cc1 | > 48.8 µM (inactive) | 17.7 µM (inactive) | 20.2 µM (inactive) | 17.8 µM (inactive) | 2.22 µM (inactive) | 3.61 µM (inactive) | > 42.7 µM (inactive) | > 35 µM (inactive) | 11.1 µM (inactive) |
| C=CC1C(OC2OC(CO)C(O)C(O)C2O)OC=C(C(=O)OC)C1CC=O (centres undefined) | > 100 µM (inactive) | > 100 µM (inactive) |  |  |  | > 100 µM (inactive) | > 100 µM (inactive) | > 100 µM (inactive) | > 100 µM (inactive) |
